{"source": "paper PMC6962389", "about": "“Somatostatin receptor mediated targeting of acute myeloid leukemia by photodynamic metal complexes for light induced apoptosis” (Scientific Reports, 2020)", "format_in_all_cases": "cell-based, human", "key": {"[1]": {"test_system": "primary AML patient samples (clonogenic progenitor cells)", "assay": "CFC assay on primary AML patient samples", "parameters": "average reduction in CFC numbers, with exposure to light / % reduction of CFC: concentration or dose not given beside the values", "conditions": "for CFC/10^4 cells: 4 h incubation, day 14", "from_the_text": "Mononuclear cells were isolated from bone marrow (BM) or peripheral blood (PB) from patients with primary diagnosed AML, analyzed for their SSTR2 expression (n = 13) and cultured with the RU-SST bioconjugate to test the toxicity of the compound (n = 6). All patient samples were investigated by cytomorphological, cytogenetic and molecular analyses after written informed consent as described. Diagnosis was made according to the French-American-British criteria and the World Health Organization classification (Table 1)[11],[12]. The study was approved by the ethic committee of the University of Ulm. in accordance with the ethical principles of the declaration of Helsinki (http://www.wma.net/en/30publications/10policies/b3/index.html). Leukemic cells were thawed and kept in culture with culture conditions as mentioned previously.\n(§1) To evaluate the toxicity of the bioconjugate on clonogenic progenitor cells, AML cell lines as well primary human cells were incubated with the compound for 4 hours. Subsequently, cells were washed and cell counts were determined via trypan blue exclusion. Colony forming cell unit (CFC) assays were performed as described previously. In all cases cell numbers placed in methylcellulose were calculated according to the initial cell number at the start of the experiment, not taking into account any cell loss during the incubation time. 1000 cells (OCI-AML3 and HL60) and 500 cells (THP1) were plated per dish (methocult H4330). For primary patient samples, 10,000 cells were plated per dish in methylcellulose H4330 (Stem Cell Technologies, Vancouver, BC, Canada) and supplemented with cytokines. For the CD34^+ enriched CB cells, 300 cells were plated per dish in methocult H4434 (Stem Cell Technologies, Vancouver, BC, Canada). Each experiment was performed in duplicates and values mentioned are Mean ± SEM."}, "HL60 cells": {"test_system": "HL60 cells", "assay": "Determination of the IC50 in HL60 cells (trypan blue exclusion, light/dark)", "conditions": "10–100 µM", "protocol": "Figure 1 Uptake and IC50 studies of RU complex: confocal images of OCI-AML3 cells incubated with RU-SST (50 μm) (A) and RU-Alkyne control (RU-Alk) (100μm) (B) for 4 hrs. The laser intensity was measured for alexaflour (430 nm). Uptake characteristics with values of the integrated intensity (a.u.) per cell (C). Bar graphs indicate the average integrated intensity per cell in both experimental arms. Cells analysed for RU-SST (n = 45) and RU-Alk (n = 44). Data are represented as mean ± SEM. (D) IC50 was calculated in HL60 AML cell lines. Percent cell survival was measured by trypan blue exclusion after 4 h incubation with RU-Alk (control), RU-SST (irradiated) compared to RU-SST in the absence of light (dark RU). Experiments performed for dark RU-SST (n = 6); RU-Alk (n = 3), for RU-SST (n = 3). Data are represented as mean ± SEM. […]\nphenylalanine as an internal standard (Int. std.) was added to remove large proteins and the solution was centrifuged at […] for 30 min at 0 °C. […] The amount of RU-SST in each sample was determined as a ratio of the integration of the mass chromatogram of RU-SST to the int. std. […]\nFor this purpose, we chose a high SSTR2 expressing cell line, HL60 2 . […] The cell viability was quantified by trypan blue exclusion. IC50 values were calculated using R-statistical package. […]"}, "CD34+ enriched CB cells": {"test_system": "CD34+ enriched CB cells", "assay": "CFC assay on CD34+ enriched cord blood cells", "conditions": "unconjugated RU-Alkyne; ±4.88% SEM; n = 6 CB samples", "protocol": "Cells from cord blood (CB) were enriched for CD34^+ using the human CD34 Micro Bead Kit ultrapure (Miltenyi Biotec, Auburn, CA, USA) according to the manufacturer instructions.\nTo evaluate the toxicity of the bioconjugate on clonogenic progenitor cells, AML cell lines as well primary human cells were incubated with the compound for 4 hours. Subsequently, cells were washed and cell counts were determined via trypan blue exclusion. Colony forming cell unit (CFC) assays were performed as described previously. In all cases cell numbers placed in methylcellulose were calculated according to the initial cell number at the start of the experiment, not taking into account any cell loss during the incubation time. 1000 cells (OCI-AML3 and HL60) and 500 cells (THP1) were plated per dish (methocult H4330). […]\nTo evaluate, whether the effect of the compound was selective for AML stem and progenitor cells, we analysed the toxicity of the compound for CD34^+ enriched CB cells (n = 6). […]\nFigure 3 Effect of RU-complexes on clonogenicity of normal CD34^+ cells: cells from […] CD34^+ enriched cord blood (CB) samples (n = 6) were tested for the effect of both RUSST and RU-Alkyne compounds. […] Percent reduction was determined based on the colony numbers generated from CB cells treated with RU-SST and exposed to light compared to dark RU-SST. […] Significance calculated by Mann-Whitney test ** < 0.01."}, "OCI-AML3 cells": {"test_system": "OCI-AML3 cells", "assay": "CFC assay (clonogenic growth in methylcellulose), OCI-AML3", "conditions": "unconjugated control, 4 h incubation, day 14", "protocol": "as §1\nWe could detect a significant decrease in colony growth in the OCI AML3 cell line with a 92% reduction of colony growth when the cells were incubated with RU-SST and exposed to light compared to the cells treated with RU-SST and not exposed to light (Fig. 2A).\nSignificance was calculated using the Mann-Whitney test (** < 0.01). […]"}}, "note": "Like-named read-outs stand apart in the source and are kept apart here.", "data": [{"compound": "C#Cc1ccnc(-c2ccccn2)c1.[Cl-].[Cl-].[Ru+2].c1ccc(-c2ccccn2)nc1.c1ccc(-c2ccccn2)nc1", "note": "[RU-Alkyne]", "values": [{"measurement": "% reduction of CFC", "setting": "[1]; AML#1, 6 min RU-Alk (light) vs dark RU-SST", "value": 22, "unit": "%"}, {"measurement": "CFC/10^4 cells", "setting": "[1]; AML#1, 6 min RU-Alk (light)", "value": 78, "unit": "CFC/10^4 cells"}, {"measurement": "% reduction of CFC", "setting": "[1]; AML#1, Dark RU-Alk vs dark RU-SST", "value": 0, "unit": "%"}, {"measurement": "CFC/10^4 cells", "setting": "[1]; AML#1, Dark RU-Alk", "value": 153, "unit": "CFC/10^4 cells"}, {"measurement": "% reduction of CFC", "setting": "[1]; AML#2, 6 min RU-Alk (light) vs dark RU-SST", "value": 17.7, "unit": "%"}, {"measurement": "CFC/10^4 cells", "setting": "[1]; AML#2, 6 min RU-Alk (light)", "value": 208, "unit": "CFC/10^4 cells"}, {"measurement": "% reduction of CFC", "setting": "[1]; AML#2, Dark RU-Alk vs dark RU-SST", "value": 2.0, "unit": "%"}, {"measurement": "CFC/10^4 cells", "setting": "[1]; AML#2, Dark RU-Alk", "value": 247, "unit": "CFC/10^4 cells"}, {"measurement": "% reduction of CFC", "setting": "[1]; AML#3, 6 min RU-Alk (light) vs dark RU-SST", "value": 0, "unit": "%"}, {"measurement": "CFC/10^4 cells", "setting": "[1]; AML#3, 6 min RU-Alk (light)", "value": 211, "unit": "CFC/10^4 cells"}, {"measurement": "% reduction of CFC", "setting": "[1]; AML#3, Dark RU-Alk vs dark RU-SST", "value": 0, "unit": "%"}, {"measurement": "CFC/10^4 cells", "setting": "[1]; AML#3, Dark RU-Alk", "value": 187, "unit": "CFC/10^4 cells"}, {"measurement": "% reduction of CFC", "setting": "[1]; AML#4, 6 min RU-Alk (light) vs dark RU-SST", "value": 48.9, "unit": "%"}, {"measurement": "CFC/10^4 cells", "setting": "[1]; AML#4, 6 min RU-Alk (light)", "value": 24, "unit": "CFC/10^4 cells"}, {"measurement": "% reduction of CFC", "setting": "[1]; AML#4, Dark RU-Alk vs dark RU-SST", "value": 38.2, "unit": "%"}, {"measurement": "CFC/10^4 cells", "setting": "[1]; AML#4, Dark RU-Alk", "value": 29, "unit": "CFC/10^4 cells"}, {"measurement": "% reduction of CFC", "setting": "[1]; AML#5, 6 min RU-Alk (light) vs dark RU-SST", "value": 41.5, "unit": "%"}, {"measurement": "CFC/10^4 cells", "setting": "[1]; AML#5, 6 min RU-Alk (light)", "value": 69, "unit": "CFC/10^4 cells"}, {"measurement": "% reduction of CFC", "setting": "[1]; AML#5, Dark RU-Alk vs dark RU-SST", "value": 38.9, "unit": "%"}, {"measurement": "CFC/10^4 cells", "setting": "[1]; AML#5, Dark RU-Alk", "value": 72, "unit": "CFC/10^4 cells"}, {"measurement": "% reduction of CFC", "setting": "[1]; AML#6, 6 min RU-Alk (light) vs dark RU-SST", "value": 58.7, "unit": "%"}, {"measurement": "CFC/10^4 cells", "setting": "[1]; AML#6, 6 min RU-Alk (light)", "value": 29, "unit": "CFC/10^4 cells"}, {"measurement": "% reduction of CFC", "setting": "[1]; AML#6, Dark RU-Alk vs dark RU-SST", "value": 48.5, "unit": "%"}, {"measurement": "CFC/10^4 cells", "setting": "[1]; AML#6, Dark RU-Alk", "value": 36, "unit": "CFC/10^4 cells"}, {"measurement": "average reduction in CFC numbers, with exposure to light", "setting": "[1]; RU-Alkyne with exposure to light, 6 primary AML samples, mean (SEM), not significant", "value": 31.4, "unit": "%"}, {"measurement": "IC50", "setting": "HL60 cells; 4 h incubation in the dark, washed, 470 nm LED 6 min (6.9 ± 0.9 J cm-2), probit regression, n = 3, mean ± SEM, read-out: IC50 after light irradiation", "value": "> 100", "unit": "µM"}, {"measurement": "IC50", "setting": "HL60 cells; 4 h incubation, not exposed to light, IC50 not reached with up to 100 µM, dark RU-SST n = 6, read-out: IC50 in the dark", "value": "> 100", "unit": "µM"}, {"measurement": "reduction in colony numbers compared to dark RU-SST", "setting": "CD34+ enriched CB cells", "value": 18.59, "unit": "%"}, {"measurement": "colony growth, exposed or not exposed to light", "setting": "OCI-AML3 cells", "value": "no comparable reduction in colony growth"}]}]}
